From publication PMC11124362, “Metabolism, Disposition, Excretion, and Potential Transporter Inhibition of 7–16, an Improving 5-HT2A Receptor Antagonist and Inverse Agonist for Parkinson’s Disease” (Molecules, 2024)

Experiments:
5-HT2A receptor = target: 5-HT2A receptor; parameters: method as in PMID 35279606; settings: cited from earlier work
[1] = Metabolite identification in dog liver microsomes; assay type: in vitro ADME; settings: 7–16 10 µM, liver microsomes 1 mg/mL, NADPH, 37 °C, 60 min
Description: (§1) In accordance with our previous methods, 7–16 (10 µM) was incubated with mouse, rat, dog, monkey, and human liver microsome proteins (1 mg/mL) in 100 mM sodium phosphate buffer (pH 7.4) containing 10 mM magnesium chloride and 2 mM NADPH at 37 °C for 60 min. All samples were prepared in duplicates. The reactions were terminated by adding three times the volume of ice-cold acetonitrile (600 µL) and stored at −20 °C until analysis. Control samples without NADPH and 0-time point samples were included. As a positive control, testosterone (10 µM), which was metabolized to produce the hydroxylation metabolite, was used as a substrate to confirm the activity of the incubation system.
(§2) After pre-treatments, the samples were analyzed by an Acquity UPLC system coupled with a diode array detector (Waters Corporation, Milford, MA, USA) and Q Exactive HRMS (Thermo Electron Corporation, Waltham, MA, USA) (UPLC–UV-Q Exactive HRMS). Samples were separated on an Agilent XDB C18 column (150 × 2.1 mm i.d. 3.5 μm, Agilent Corporation, Santa Clara, CA, USA) at 40 °C by gradient elution with water and acetonitrile containing 0.1% formic acid. The flow rate was 0.40 mL/min. The ultraviolet (UV) detection wavelength was 286 nm. Q Exactive HRMS were operated at positive ion mode (3.5 kV) using a heating electrospray ionization source. Mass calibration was required to be performed before conducting experiments so as to achieve the best mass accuracy and mass calibration should be performed every five days. The metabolites were detected by full MS/dd-MS^2 analysis from m/z 100 to m/z 1000. The resolution of the first-class scan and second-class scan was 70,000 and 17,500, respectively. Thermo Compound Discover software was used to identify expected and unknown metabolites, and we finally proposed the 7–16 metabolic pathways based on the deduced metabolites and relevant drug biotransformation knowledge.

OATP1B3 = target: T1, OATP1B3 (Homo sapiens, UniProt Q9NPD5)
T1 sequence (Q9NPD5 1-702): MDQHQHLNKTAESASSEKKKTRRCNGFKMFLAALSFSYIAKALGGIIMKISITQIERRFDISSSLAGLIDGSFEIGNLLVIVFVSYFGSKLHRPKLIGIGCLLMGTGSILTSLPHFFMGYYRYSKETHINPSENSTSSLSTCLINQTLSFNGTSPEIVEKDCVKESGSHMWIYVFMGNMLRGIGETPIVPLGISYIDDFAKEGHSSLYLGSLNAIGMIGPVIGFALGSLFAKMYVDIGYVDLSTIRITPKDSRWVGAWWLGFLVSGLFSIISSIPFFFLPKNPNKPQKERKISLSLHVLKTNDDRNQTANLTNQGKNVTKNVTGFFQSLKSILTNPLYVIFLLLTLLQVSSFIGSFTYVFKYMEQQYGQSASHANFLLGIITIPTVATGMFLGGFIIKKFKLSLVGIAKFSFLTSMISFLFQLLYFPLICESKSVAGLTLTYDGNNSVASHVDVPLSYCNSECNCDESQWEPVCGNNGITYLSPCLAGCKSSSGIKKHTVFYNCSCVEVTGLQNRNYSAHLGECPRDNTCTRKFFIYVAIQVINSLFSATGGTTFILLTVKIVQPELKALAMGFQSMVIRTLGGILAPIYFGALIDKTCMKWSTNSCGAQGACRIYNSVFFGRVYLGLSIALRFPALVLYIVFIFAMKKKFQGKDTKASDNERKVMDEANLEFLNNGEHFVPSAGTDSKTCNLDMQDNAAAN

CYP1A2 = assay: Metabolic phenotype by rhCYP isozymes, CYP1A2; assay type: in vitro ADME, human; settings: 7–16 1 µM
Description: (§3) Based on the result of metabolite identification, two metabolites were selected as targets for metabolic phenotyping analysis. Seven CYP isozymes (CYP1A2, CYP2B6, CYP2C8, CYP2C9, CYP2C19, CYP2D6, and CYP3A4) were investigated using the rhCYP isozymes method. In brief, 7–16 (1 µΜ) was incubated with each rhCYP isozyme ([…]) in 100 mM sodium phosphate buffer (pH 7.4) containing 3 mM magnesium chloride. After 10 min of preincubation at 37 °C, the reactions were initiated by adding NADPH (1 mM) and then incubated at 37 °C in a shaking water bath for 0, 5, 15, and 30 min. The specific substrates of each rhCYP isozyme were incubated as the above method to confirm the activity of the incubation system. The samples were prepared in triplicates. The reactions were terminated by adding three times the volume of ice-cold acetonitrile (600 µL) and stored at −20 °C until analysis. After pre-treatment, the samples were determined by the LC–MS/MS (Shimadzu Exion-Triple Quad 4500) method. The relative contribution rate of each isozyme to the metabolism of 7–16 was evaluated in HLMs using the following formula: Contributionx% = Vx × Abundancex (pmol/mg protein)/Σ(Vi × Abundancei). Vx (µL/min/pmol) is the production rate of metabolites for each rhCYP isozyme.

CYP2B6 = assay: Metabolic phenotype by rhCYP isozymes, CYP2B6; assay type: in vitro ADME, human; settings: 7–16 1 µM
Description: as §3

CYP3A4 = tested on: CYP3A4; parameters: method as in PMID 35279606; settings: previous study; read-out: CYP3A4 inhibition IC50; cited from earlier work
[2] = Metabolite identification in monkey liver microsomes; assay type: in vitro ADME; settings: 7–16 10 µM, liver microsomes 1 mg/mL, NADPH, 37 °C, 60 min
Description: as §1, §2

CYP2C19 = tested on: CYP2C19; parameters: method as in PMID 35279606; settings: previous study; read-out: CYP2C19 inhibition IC50; cited from earlier work
P-gp = target: T2, P-gp (Homo sapiens, UniProt P08183); assay: P-gp inhibitor assay in MDR1-MDCKII cells; assay type: in vitro ADME; settings: substrate Digoxin 10.0 µM, efflux ratio, read-out: Inhibition IC50, P-gp
T2 construct: expressed in transfected cells; host or cells: MDR1-MDCKII (Madin-Darby canine kidney cells)

hERG = tested on: hERG; parameters: method as in PMID 35279606; settings: versus pimavanserin; cited from earlier work

T2 sequence (P08183 whole entry): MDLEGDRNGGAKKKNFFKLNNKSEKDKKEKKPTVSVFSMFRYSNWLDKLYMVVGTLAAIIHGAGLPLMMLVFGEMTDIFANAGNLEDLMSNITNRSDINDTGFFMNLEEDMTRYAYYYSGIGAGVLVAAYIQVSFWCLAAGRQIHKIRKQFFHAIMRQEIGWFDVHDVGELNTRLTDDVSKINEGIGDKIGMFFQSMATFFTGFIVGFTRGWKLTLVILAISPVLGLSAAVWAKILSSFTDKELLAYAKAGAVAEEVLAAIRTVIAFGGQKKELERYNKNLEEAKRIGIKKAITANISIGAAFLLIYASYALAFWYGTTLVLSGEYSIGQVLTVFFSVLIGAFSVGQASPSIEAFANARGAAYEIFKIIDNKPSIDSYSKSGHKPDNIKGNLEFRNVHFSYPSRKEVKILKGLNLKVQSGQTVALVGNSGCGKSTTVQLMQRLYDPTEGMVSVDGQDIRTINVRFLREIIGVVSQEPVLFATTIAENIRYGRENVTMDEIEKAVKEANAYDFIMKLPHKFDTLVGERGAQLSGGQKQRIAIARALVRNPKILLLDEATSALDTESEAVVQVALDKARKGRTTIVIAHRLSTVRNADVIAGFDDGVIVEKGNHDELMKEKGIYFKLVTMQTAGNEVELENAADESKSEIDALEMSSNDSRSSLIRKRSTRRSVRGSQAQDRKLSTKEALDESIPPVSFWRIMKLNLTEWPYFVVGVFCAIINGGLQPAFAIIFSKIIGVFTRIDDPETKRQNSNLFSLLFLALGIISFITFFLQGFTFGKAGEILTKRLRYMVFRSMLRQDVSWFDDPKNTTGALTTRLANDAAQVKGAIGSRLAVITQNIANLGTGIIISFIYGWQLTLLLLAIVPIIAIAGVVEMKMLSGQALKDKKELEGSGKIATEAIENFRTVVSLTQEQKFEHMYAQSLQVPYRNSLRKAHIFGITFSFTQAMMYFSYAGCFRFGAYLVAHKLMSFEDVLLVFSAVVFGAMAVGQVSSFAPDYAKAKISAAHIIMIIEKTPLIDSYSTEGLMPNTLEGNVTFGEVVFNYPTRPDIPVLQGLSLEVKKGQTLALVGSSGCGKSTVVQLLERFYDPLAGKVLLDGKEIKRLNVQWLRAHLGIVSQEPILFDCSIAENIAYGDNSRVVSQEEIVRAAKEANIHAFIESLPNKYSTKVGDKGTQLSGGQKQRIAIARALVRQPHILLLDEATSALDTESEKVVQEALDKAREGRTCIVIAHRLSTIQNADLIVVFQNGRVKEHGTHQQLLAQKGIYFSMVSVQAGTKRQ

With `CN1CCC(N(Cc2ccc(F)cn2)C(=O)NCc2ccc(OCC(F)(F)F)cc2)CC1` [7–16, 3-(4-(2,2,2-trifluoroethoxy)benzyl)-1-((5-fluoropyridin-2-yl)methyl)-1-(1-methylpiperidin-4-yl) urea] as the compound, how does the IC50 (5-HT2A receptor; previous study, read-out: 5-HT2A receptor antagonist activity IC50) read?
Its IC50 is 0.00054 µM.

And the “fold higher 5-HT2A receptor antagonist activity than pimavanserin” value (5-HT2A receptor; versus pimavanserin)?
The value was 50 fold.

What about the “Relative Abundance, UV Area% Dog” value [1] of the same compound?
Its value is 77.2%.

And the IC50 (OATP1B3)?
The IC50 was 89.5 µM.

And the “relative contribution of CYP1A2 to metabolism” value (CYP1A2)?
Its value is “little or no contribution”.

And the “relative contribution of CYP2B6 to metabolism” value (CYP2B6)?
The value was “little or no contribution”.

And the IC50 (CYP3A4)?
The IC50 was > 62.9 µM.

And the “Relative Abundance, UV Area% Monkey” value [2]?
The value was 90.6%.

And the IC50 (CYP2C19)?
The IC50 was > 62.9 µM.

And the IC50 (P-gp)?
The IC50 was 30.6 µM.

What about the “fold weaker hERG inhibitory activity than pimavanserin” value (hERG) of the same compound?
Its value is 2 fold.
